According to PMC4770772 (Oncotarget, 2015):
Numbering of substitutions follows the chain as printed. Read-outs that look alike come from different tables or passages of the source.

Columns and labels:
[1] = target: T1, ABCG2 (Homo sapiens, UniProt Q9UNQ0); assay: vanadate-sensitive ATPase stimulation in membrane vesicles; also [3H]-mitoxantrone accumulation/efflux inhibition in HEK293/R482 cells; format: biochemical
T1 construct: membrane vesicles of High Five insect cells overexpressing ABCG2
T1 sequence (Q9UNQ0 1-655): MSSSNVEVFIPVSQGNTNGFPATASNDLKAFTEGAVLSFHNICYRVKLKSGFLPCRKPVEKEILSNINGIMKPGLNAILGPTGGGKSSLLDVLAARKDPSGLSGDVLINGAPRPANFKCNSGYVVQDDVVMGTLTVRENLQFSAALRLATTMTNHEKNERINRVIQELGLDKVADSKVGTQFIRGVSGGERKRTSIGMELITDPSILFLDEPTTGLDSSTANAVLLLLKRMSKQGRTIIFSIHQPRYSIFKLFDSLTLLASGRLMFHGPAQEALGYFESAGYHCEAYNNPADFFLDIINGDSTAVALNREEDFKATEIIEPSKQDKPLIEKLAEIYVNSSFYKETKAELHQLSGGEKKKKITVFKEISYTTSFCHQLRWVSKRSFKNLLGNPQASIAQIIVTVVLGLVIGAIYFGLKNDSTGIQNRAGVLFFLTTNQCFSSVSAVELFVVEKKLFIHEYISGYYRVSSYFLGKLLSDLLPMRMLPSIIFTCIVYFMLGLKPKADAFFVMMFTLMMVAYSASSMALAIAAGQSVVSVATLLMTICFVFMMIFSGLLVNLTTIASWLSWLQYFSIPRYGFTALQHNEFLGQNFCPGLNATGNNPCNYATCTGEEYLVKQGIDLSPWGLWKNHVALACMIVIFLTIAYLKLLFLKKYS

[2] = target: T2, ABCG2 (Homo sapiens, UniProt Q9UNQ0, R482G); assay: [3H]-mitoxantrone accumulation in HEK293/R482G cells at […]; format: cell-based
T2 construct: full-length ABCG2 in HEK293 cells
T2 sequence (Q9UNQ0 1-655 R482G): T1 sequence (Q9UNQ0 1-655) with R482G

[3] = target: T3, ABCG2 (Homo sapiens, UniProt Q9UNQ0, R482T); assay: [3H]-mitoxantrone accumulation in HEK293/R482T cells at […]; format: cell-based
T3 construct: full-length ABCG2 in HEK293 cells
T3 sequence (Q9UNQ0 1-655 R482T): T1 sequence (Q9UNQ0 1-655) with R482T

[4] = target: T1, ABCG2; assay: vanadate-sensitive ATPase stimulation in membrane vesicles; [3H]-MX efflux from ABCG2-transfected cells; format: biochemical
[5] = target: T1, ABCG2; format: biochemical; conditions: membrane vesicles

Structure (SMILES): COc1cc(NC(=O)c2ccc(-c3ccc(Cl)cc3)o2)cc(OC)c1 [A-803467]
- EC50 [1]: 718 nM
- [3H]-mitoxantrone accumulation in HEK293/R482G cells at 7.5 μM [2]: significantly increased intracellular accumulation of [^3H]-MX in ABCG2-expressing cells HEK293/R482, HEK293/R482G and HEK293/R482T cells
- [3H]-mitoxantrone accumulation in HEK293/R482T cells at 7.5 μM [3]: significantly increased intracellular accumulation of [^3H]-MX in ABCG2-expressing cells HEK293/R482, HEK293/R482G and HEK293/R482T cells

Structure (SMILES): O=C1c2c(O)ccc(O)c2C(=O)c2c(NCCNCCO)ccc(NCCNCCO)c21 [mitoxantrone]
- EC50 [4]: 2200 nM

Structure (SMILES): CC[C@@]1(O)C(=O)OCc2c1cc1n(c2=O)Cc2cc3c(CN(C)C)c(O)ccc3nc2-1 [topotecan]
- EC50 [5]: 2600 nM
